From patent publication US20200368205A1, “METHODS AND COMBINATION THERAPY TO TREAT CANCER” (ARRAY BIOPHARMA INC., priority 2018, published 2020) come the findings set out here.

In the data set the test system is KRas mutant CT26 syngeneic tumors. In words: Growth of KRas mutant CT26 murine colon syngeneic tumors. Format: in vivo. The settings on record: for Cures (day 61): animals with no palpable tumor at study end. Here is the method: 1% CMC/0.5% Tween-80 (CMCT) was prepared by adding 960 mL of distilled water to a 1000 mL Pyrex® glass bottle with a stir bar in the bottom, and was used as the oral vehicle. The water was warmed to 50-60° C. then 5 mL Tween® 80 (polyoxyethylenesorbitan monooleate, Sigma P2287, batch #054K0154) and 15.6 mL benzyl alcohol (Sigma 402834, Batch #00296PK) added. Carboxymethylcellulose (5 g, CMC, low viscosity, Sigma C5678, Batch #033K0008) was added slowly, over one hour. The solution was stirred until the CMC dissolved and the solution was clear. 30 mg/kg MEK162 (Binimetinib, 100% active) was prepared as a white, homogeneous suspension in CMCT. MEK162 was administered in 10 mL/kg and dosed at 30 mg/kg (3.0 mg/mL) by oral gavage. To prepare, dry test compound (90 mg) was weighed and 30 mL CMCT added. Dose suspension was sonicated until a fine suspension was achieved (˜15 min). Final dose suspension was stored at 4° C. during live phase and sonicated to resuspend prior to dose administration. Dose suspension was prepared every 4-5 days or as needed. 100 μg αPD-1 RMP1-14, Rat IgG2a isotype (BioXCell cat.no. BP0146, lot #5792×2/1015)−7.12 mg/mL stock concentration. RMP1-14 was prepared by dilution of 0.843 stock solution with 5.157 mL sterile saline for injection. The antibody was administered at 100 μg/animal (100 μL of a 1 mg/mL dose solution) by intraperitoneal injection.
Male BALB/c mice from Charles River (Wilmington, Mass.) were obtained at 6-8 weeks of age and housed in groups of 5. Following a two week acclimation period, a suspension of 1×10^5 cells in a volume of 100 μL saline was implanted subcutaneously on the right flank of the animal near the axillary region. Animals were then randomly assigned to treatment groups. Treatment was initiated on day 4 after CT26 tumor cell inoculation to allow for a sufficient treatment window. MEK162 was administered once daily (QD) for 14 consecutive days by oral gavage (PO) at 30 mg/kg and anti-PD1 antibody was administered twice weekly by intraperitoneal injection (IP) (Table 4).
The combination was evaluated as concomitant administration or sequential where MEK162 treatment was initiated at the time that tumor resistance from anti-PD1 treatment emerged. For the sequential treatment group, animals were enrolled in MEK162 treatment when tumors reached 350-400 mm^3 after anti-PD1 antibody therapy was initiated.
Animals were monitored for tumor growth and body weight 2-3 times per week based on outgrowth kinetics. Tumor diameter was measured with digital calipers, and the tumor volume in mm^3 was calculated by the formula: Volume=((width)^2×length)/2. […] Animals were removed from study if found moribund or if tumor volume exceeded 1400 mm^3. At that time, tumor tissue was harvested and frozen for later analysis of T-cell clonality by immune sequencing (Adaptive Biotech, San Diego, Calif.). Food, water, temperature and humidity were according to Pharmacology Testing Facility performance standards (SOP's) which are in accordance with the 1996 Guide for the Care and Use of Laboratory Animals (NRC) and AAALAC-International.
The murine CT26 cell line (a.k.a. Colon 26 or Colon Tumor #26) was developed in 1975 by exposing BALB/c mice to N-nitroso-N-methylurethane-(NNMU) (Corbett et al., 1975). The undifferentiated colon carcinoma cell line with fibroblast morphology was isolated from BALB/c mice. Extensive genomics, immune phenotyping and therapeutic background are available on this cell line (information summarized from Bhadury et al., 2013, Castle et al., 2014). The cell line is reported to harbor a KRas G12D mutation and the in-house cell line was sequenced and found to match the reported mutation (BGI, Cambridge, Mass.). Literature reports expression of MHC class I but not II and a mutational load of 1688 non-synonymous point mutations; 154 are both in expressed genes and in peptides predicted to bind MHC. […]

As for `Cn1cnc2c(F)c(Nc3ccc(Br)cc3F)c(C(=O)NOCCO)cc21` [Binimetinib, 6-(4-bromo-2-fluorophenylamino)-7-fluoro-3-methyl-3H-benzoimidazole-5-carboxylic acid (2-hydroxyethoxy)-amide], the “Cures (day 61)” value is 0/10. For the same compound, the Deaths (BALB/c mice) is on record as 0/10. Moreover, the “% TGI (Day 13)” value (BALB/c mice, MEK162 30 mg/kg PO QD x14, anti-PD1 100 μg IP D 1, 4, 8, 11) turned out to be 43%. For the same compound, the “% TGI (Day 13)” value (BALB/c mice, MEK162 30 mg/kg PO QD x14, anti-PD1 100 μg IP D 1, 4, 8, 11, 30 mg/kg) is listed as 43%. The “Max % BWL” value (BALB/c mice, maximum body weight loss) was determined as 0.6%. In addition, the “Median Survival” value (BALB/c mice, vehicle 18 days) worked out at 26 days. The “Cures (day 61)” value (listed as MEK162) is given as “no cures”.
